Assay results taken from patent US8217030B2, “Association of a sinus node if current inhibitor and a beta blocker” (Les Laboratoires Servier, priority 2008, dated 2012).

Experiments:
[1] = tested on: patients with angina pectoris treated with β-blockers; experiment: treadmill exercise tolerance test (ETT), Bruce protocol, clinical study; format: in vivo, human
Description: (§1) The patients selected for this clinical study are men and women from 18 to 75 years of age who have suffered from angina pectoris for at least 3 months and been treated with β-blockers such as atenolol (50 mg o.d.) or any other β-blocker at an equivalent dose for at least 3 months. These patients have, despite their treatment, a positive exercise tolerance test (ETT) and daily symptoms of angina pectoris.
(§2) This double-blind, parallel-group, international clinical study was carried out in 889 patients. The patients, all of whom are receiving atenolol, are randomised into two groups: • in addition to the β-blocker, the first group is given ivabradine (hydrochloride) at a dose of 5 mg twice a day for two months and then at a dose of 7.5 mg twice a day for a further two months; • in addition to the β-blocker, the second group is given a placebo for 4 months.
The patients are subjected to a treadmill exercise tolerance test (ETT) in accordance with the Bruce protocol before ivabradine is administered (that is when receiving β-blocker on its own), and after 4 months of treatment with the association between ivabradine and atenolol. The principal parameters measured in the course of the effort test are: • total exercise duration (TED)—the TED includes the time taken for the treadmill to come to a stop or, that is, a duration of about 10 seconds starting from the patient's request to stop the exercise; • the time until the “angina pectoris” pain forces the patient to stop the exercise (TLA); • the time until the onset of the “angina pectoris” pain (TAO); • the time taken for a 1 mm ST segment depression (TST) to appear on the electrocardiographic recording, this being a reflection of ischaemia and corresponding to the electrical sign of pain in the cardiac muscle.
These measurements are made at trough activity of the association of active ingredients or, that is, 12±1 hours and 24±2 hours after administration of the active ingredients.
The mean improvements in the various parameters measured during the treadmill exercise test, between the value measured before the start of treatment with ivabradine and the end of the treatment period, are set out in the table below: […]

[2] = tested on: patients with angina pectoris treated with β-blockers; experiment: heart rate at rest in clinical study; format: in vivo, human; settings: after 4 months of treatment; heart rate at rest on entry 67±7 beats per minute
Description: as §1, §2
The patients have a mean age of 60±8 years. On entry into the study, the mean systolic/diastolic arterial pressure and heart rate of the patients at rest are respectively, on average: 127±12/78±7 mmHg and 67±7 beats per minute. After 4 months of treatment with the association, the heart rate has reduced by 9±10 bpm (β-blocker+placebo 1±10 bpm).

[3] = mean ± SD, before ivabradine vs after 4 months of treatment, on top of atenolol, at trough activity

Row | SMILES | exercise tolerance ([1]; patients already receiving a standard dose of β-blockers) | Improvement in time taken for a 1 mm ST segment depression (TST) [1, 3] | Improvement in time until angina pectoris pain forces the patient to stop the exercise (TLA) [1, 3] | Improvement in time until onset of angina pectoris pain (TAO) [1, 3] | Improvement in total exercise duration (TED) ([1]; mean ± SD, before ivabradine vs after 4 months of treatment, on top of atenolol, ivabradine 5 mg b.i.d. 2 months then 7.5 mg b.i.d. 2 months, at trough activity) | reduction of heart rate [2]
1 | COc1cc2c(cc1OC)CC(=O)N(CCCN(C)C[C@H]1Cc3cc(OC)c(OC)cc31)CC2 [ivabradine, 3-{3-[{[(7S)-3,4-dimethoxybicyclo[4.2.0]octa-1,3,5-trien-7-yl]methyl}(methyl)amino]propyl}-7,8-dimethoxy-1,3,4,5-tetrahydro-2H-3-benzazepin-2-one] | capable of improving exercise tolerance | – | – | – | – | –
2 | CC(C)NCC(O)COc1ccc(CC(N)=O)cc1 (stereo not drawn) [β-blocker + placebo, atenolol] | – | 15 ± 87 s | 9 ± 64 s | 23 ± 79 s | 8 ± 64 s | 1±10 bpm
